These results are taken from patent US20150064230A1, “SUSTAINED RELEASE DELIVERY OF ONE OR MORE AGENTS” (Mati Therapeutics Inc., priority 2009, published 2015).

Data set [1] in a line: Elution of latanoprost from silicone drug cores with excipients in PBS (FIGS. 9-12). The format is physicochemical. The following applies: 37° C., 100 cpm, 10% glycerol, 5% PEG400, 7.3 wt % DMPC or EPG in Formulations 1 and 2. How it is done: The silicone formulation (MED6385) is a two part system. Part A contains the silicone and crosslinker while Part B contains the tin catalyst to promote crosslinking. The two parts are combined in a final ratio of 200:1 (Part A: Part B). The required amounts of Latanoprost, the selected excipient (DMPC or EPG), the crosslinker, MED6385 Part A and B are weighed onto a glass slide and mixed for approximately 2 minutes using a plastic mini spatula. Quantities used in the preparation of specific examples are shown below.
After the silicone/latanoprost mixing is complete, the mixture is loaded in the barrel of the syringe extrusion system. The plunger is inserted and excess air is removed. The syringe is then loaded into the extrusion apparatus.
After setup, the extrusion system activated and a silicone latanoprost mixture is extruded down the length of the polyimide tubing. Once the mixture reaches the bottom of the tubing, the tubing is cut using a razor blade and clamped on both ends.
The clamped section of tubing is placed in a humidity chamber to be cured.
Samples, including those shown in FIGS. 9-12, were analyzed for elution by immersion in a PBS (phosphate buffered saline) elution medium. Temperature was maintained at 37° C. with 100 cpm shaking. The elution medium was changed daily (except weekends) for the first two weeks and weekly thereafter. Elution media samples were analyzed by reversed-phase chromatography. Samples were prepared for HPLC analysis by adding 200 μL of internal standard solution (2.4 μg/mL of butylated hydroxyanisole in isopropanol) and vortexing to mix. The amount of latanoprost eluted was determined using a reversed phase HPLC UV detection using a Waters SunFire C18, 3.5 μm, 3.0×100 mm column and detection conditions of the following: 1.0 mL/min flow rate, 200 μL injection volume, 210 nm detection wavelength, using gradient of solvents over a run time of 6 minutes (time zero=63% mobile phase A, 37% mobile phase B, time 4.9 minutes=35% A, 65% B, time 5 minutes=63% A, 37% B) comprising 0.1% Phosphoric Acid in Water (mobile Phase A) and ACN (mobile phase B), 50° C. column temperature set point.

For data set [2] the following is noted: after topical administration; studies in man; cited from earlier work.
For data set [3] the following is noted: cited from earlier work.
The subject of the next data set is subjects. The following applies: clinical trials, cited from earlier work.

As for `CCCCCCCCCCCCCCCC(=O)OCC(COP(=O)(O)OCCN)OC(=O)CCCCCCCCCCCCCCC` (stereo not drawn) [DPPE, dipalmitoyl phosphatidylethanolamine], the “release (elution) rate of latanoprost from silicone matrix with excipient relative to no excipient” value in data set [1] was “decreased elution rate”.
Same read-out and setting: the result for `CCCCCCCCCCCCCCCCCC(=O)OC[C@H](COP(=O)([O-])OCC[N+](C)(C)C)OC(=O)CCCCCCCCCCCCCCCCC` [DSPC, distearoyl phosphatidylcholine] reads “decreased elution rate”.
`CC(C)OC(=O)CCC/C=C\C[C@@H]1[C@@H](CC[C@@H](O)CCc2ccccc2)[C@H](O)C[C@@H]1O` [latanoprost, isopropyl-(Z)-7[(1R,2R,3R,5S)3,5-dihydroxy-2-[(3R)-3-hydroxy-5-phenylpentyl]cyclopentyl]-5-heptenoate]: the “time to peak concentration in the aqueous humor” value in data set [2] is on record as “about two”. Also, in data set [3], the “solubility in acetone, ethanol, ethyl acetate, isopropanol, methanol and octanol” value was “freely soluble”; the solubility in acetonitrile entry was “very soluble”; the “solubility in water” value is “practically insoluble in water”. Besides, in data set [3] (in water at 25 degrees C.), the aqueous solubility is listed as 50 micrograms/mL and the “aqueous solubility, by weight” value is “about 0.005 % by weight”. In the data set on subjects (Xalatan product information), the “conjunctivitis, diplopia, discharge from the eye, subjects” value is recorded as “Less than 1%”; the “retinal artery embolus, retinal detachment, vitreous hemorrhage from diabetic retinopathy” value is “rarely reported”; the “subjects requiring discontinuation of therapy because of intolerance to conjunctival hyperemia” value is “Less than 1%”. For the same molecule, the “systemic adverse events: upper respiratory tract infection/cold/flu, rate” value in the data set on subjects is reported as “approximately 4%”.
Regarding `CCCCCCCCCCCCCCCC(=O)OC[C@H](COP(=O)([O-])OCC[N+](C)(C)C)OC(=O)CCCCCCCCCCCCCCC` [DPPC, dipalmitoyl phosphatidylcholine], the “release (elution) rate of latanoprost from silicone matrix with excipient relative to no excipient” value in data set [1] is reported as “decreased elution rate”.
On the same count and under the same terms, the result for `CCCCCCCCCCCCCC(=O)OC[C@H](COP(=O)([O-])OCC[N+](C)(C)C)OC(=O)CCCCCCCCCCCCC` [DMPC, dimyristoyl phosphatidylcholine] reads “increased elution rate”; that for `CCCCCCCCCCCCCCCCCC(=O)O[C@H](COC(=O)CCCCCCCCCCCCCCC)COP(=O)([O-])OCC[N+](C)(C)C` [PSPC, palmitoyl stearoyl phosphatidylcholine], “decreased elution rate”.
Same read-out and setting: the result for `CCCCCCCC/C=C\CCCCCCCC(=O)O[C@H](COC(=O)CCCCCCCCCCCCCCC)COP(=O)(O)OCC(O)CO` (stereo partly drawn) [POPG, palmitoyl oleoyl phosphatidylglycerol] reads “increased elution rate”.
As to `CCCCCCCCCCCCCC(=O)OCC(COP(=O)(O)OCC(O)CO)OC(=O)CCCCCCCCCCCCC` (stereo not drawn) [DMPG, dimyristoyl phosphatidylglycerol], in data set [1], the “release (elution) rate of latanoprost from silicone matrix with excipient relative to no excipient” value is recorded as “increased elution rate”.
Same read-out and setting: the result for `OCC(O)CO` [glycerol] reads “rate is increased relative to control”.
